pIC50, pKi: −log10 of the molar value.
Columns and labels:
Glutamate NMDA receptor = target: Glutamate NMDA receptor; parameters: species or system Rattus norvegicus
Description: Inhibition of [3H]MK-801 binding to N-methyl-D-aspartate glutamate receptor of rat cerebral cortical synaptic membrane

[1] = target: Sodium-dependent serotonin transporter (Rattus norvegicus, UniProt P31652); assay: Inhibition of Serotonin transporter in cerebral cortical synaptic membrane of rats using [3H]paroxetine
[2] = target: T1, 5-hydroxytryptamine receptor 2C (Rattus norvegicus) (UniProt P08909); assay: Compound tested for relative response using 0.1 uM 5-HT as agonist against 5-hydroxytryptamine 2C receptor; assay type: functional
T1 sequence (whole entry): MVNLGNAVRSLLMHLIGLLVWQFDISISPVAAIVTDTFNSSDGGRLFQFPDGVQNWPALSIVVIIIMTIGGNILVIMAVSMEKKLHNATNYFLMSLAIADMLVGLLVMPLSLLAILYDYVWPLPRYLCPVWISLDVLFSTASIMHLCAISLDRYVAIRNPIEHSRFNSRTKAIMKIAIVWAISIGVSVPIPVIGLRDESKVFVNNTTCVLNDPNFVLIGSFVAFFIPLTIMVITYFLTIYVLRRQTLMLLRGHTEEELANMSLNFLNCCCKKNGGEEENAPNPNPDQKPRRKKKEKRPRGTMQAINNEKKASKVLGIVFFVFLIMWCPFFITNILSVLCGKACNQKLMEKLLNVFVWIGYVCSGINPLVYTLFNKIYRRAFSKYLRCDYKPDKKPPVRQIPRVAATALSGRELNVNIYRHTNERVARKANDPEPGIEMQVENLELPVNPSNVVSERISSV

[3] = target: T2, Muscarinic acetylcholine receptor M1 (Rattus norvegicus) (UniProt P08482); assay: Compound tested for relative response using 1 uM ACh as agonist against AChM1 receptor.; assay type: functional
T2 sequence (whole entry): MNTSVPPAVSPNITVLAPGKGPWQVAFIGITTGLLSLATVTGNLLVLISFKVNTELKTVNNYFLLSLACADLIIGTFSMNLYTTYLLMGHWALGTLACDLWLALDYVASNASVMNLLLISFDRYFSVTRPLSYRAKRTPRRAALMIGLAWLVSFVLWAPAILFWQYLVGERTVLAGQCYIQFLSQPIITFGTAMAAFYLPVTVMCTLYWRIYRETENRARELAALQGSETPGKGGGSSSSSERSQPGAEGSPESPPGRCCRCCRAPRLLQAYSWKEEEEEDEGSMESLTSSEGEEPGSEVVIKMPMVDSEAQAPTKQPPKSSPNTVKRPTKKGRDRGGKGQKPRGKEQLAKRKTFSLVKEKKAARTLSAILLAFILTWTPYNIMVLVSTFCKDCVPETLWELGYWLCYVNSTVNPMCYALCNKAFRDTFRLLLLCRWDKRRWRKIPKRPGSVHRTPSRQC

[4] = target: GABA-A receptor; anion channel (Rattus norvegicus) (UniProt O09028+P15431+P18506+P18508+P19969+P20236+P23574+P23576+P28471+P28473+P30191+P62813+P63079+P63138+Q91ZM7+Q9ES14); assay: Compound tested for relative response using 30 uM GABA as agonist against Gamma-aminobutyric acid A receptor; assay type: functional
[5] = target: Glutamate receptor ionotropic, kainate (Rattus norvegicus) (UniProt P22756+Q01812+P42260+P42264+Q63273); assay: Compound tested for relative response using 30 uM kainate as agonist against Ionotropic glutamate receptor kainate; assay type: functional
[6] = target: Glutamate receptor ionotropic, AMPA (Rattus norvegicus) (UniProt P19491+P19492+P19493+P19490); assay: Compound tested for relative response using 10 uM AMPA as agonist against Ionotropic glutamate receptor AMPA; assay type: functional
[7] = target: Glutamate receptor ionotropic, NMDA 1 (Rattus norvegicus) (UniProt P35439); assay: Compound tested for relative response using 30 uM NMDA+10 uM glycine as agonist against N-methyl-D-aspartate glutamate receptor 1; assay type: functional

Sequence of Sodium-dependent serotonin transporter (P31652 whole entry): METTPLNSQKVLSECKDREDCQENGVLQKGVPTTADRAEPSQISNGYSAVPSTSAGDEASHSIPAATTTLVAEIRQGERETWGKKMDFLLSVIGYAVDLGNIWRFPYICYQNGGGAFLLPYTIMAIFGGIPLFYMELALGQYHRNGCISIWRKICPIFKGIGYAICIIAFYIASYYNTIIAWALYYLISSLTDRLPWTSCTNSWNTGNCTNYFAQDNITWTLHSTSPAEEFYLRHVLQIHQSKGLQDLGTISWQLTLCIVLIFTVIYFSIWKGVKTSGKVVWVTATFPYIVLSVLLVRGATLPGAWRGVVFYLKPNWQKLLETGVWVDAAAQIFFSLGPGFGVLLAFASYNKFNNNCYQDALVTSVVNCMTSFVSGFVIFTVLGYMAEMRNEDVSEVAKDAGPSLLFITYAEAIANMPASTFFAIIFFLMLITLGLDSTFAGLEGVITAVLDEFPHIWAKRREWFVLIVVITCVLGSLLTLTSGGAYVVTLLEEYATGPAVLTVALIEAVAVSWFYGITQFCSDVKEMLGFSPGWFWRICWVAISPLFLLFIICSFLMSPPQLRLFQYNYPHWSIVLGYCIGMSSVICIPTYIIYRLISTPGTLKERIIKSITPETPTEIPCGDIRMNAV

Row | SMILES | pIC50 (Glutamate NMDA receptor) | pKi [1] | also measured
1 | CCN(CC)C(=O)[C@@]1(c2ccccc2)C[C@H]1C(N)C(=O)OC (some centres undefined) | < 4.00 | 4.60 | –
2 | CCN(CC)C(=O)[C@@]1(c2ccccc2)C[C@H]1C(N)C(=O)O (some centres undefined) | < 4.00 | < 4.00 | –
3 | CCN(CC)C(=O)[C@@]1(c2ccccc2)C[C@H]1C(N)C(N)=O (some centres undefined) | 4.57 | < 4.00 | –
4 | C#CC(N)[C@@H]1C[C@@]1(C(=O)N(CC)CC)c1ccccc1 (stereo in doubt; 2d) [listing 1 of 2 here] | 6.54 | 6.72 | –
5 | C#CC(N)[C@@H]1C[C@@]1(C(=O)N(CC)CC)c1ccccc1 (stereo in doubt; 2d) [listing 2 of 2 here] | – | – | Relative response [2]: 100%; Relative response [3]: 102%; Relative response [4]: 99.6%; Relative response [5]: 96.9%; Relative response [6]: 100%; Relative response [7]: 32.1%
6 | CCN(CC)C(=O)[C@@]1(c2ccccc2)C[C@H]1C(N)C#N (stereo in doubt; 2e) | 4.02 | < 4.00 | –
7 | C#CC(N)[C@@H]1C[C@@]1(C(=O)N(CC)CC)c1ccccc1 (stereo in doubt; 3d) | 4.80 | 4.82 | –
8 | CCN(CC)C(=O)[C@@]1(c2ccccc2)C[C@H]1C(N)C#N (stereo in doubt; 3e) | < 4.00 | – | –
